Test results taken from patent US8772290B2, “Alpha-arylmethoxyacrylate derivative, preparation method thereof, and pharmaceutical composition containing same” (Oscotech Inc., priority 2010, dated 2014).

Test system: HIF
Experiment: Assay for inhibitory activity against HIF activity (HIF1 luciferase reporter cell line)
Type: cell-based, human
Conditions: Homo sapiens; HEK293 HIF1 reporter cell line, 1% oxygen, 6 hours, luciferase activity 50% inhibited
From the text: In order to assay the compounds of the present invention for inhibitory activity against HIF activity, the HIF1 reporter plasmid (Panomics) that is designed to control the expression of luciferase by HIF was employed. The HIF1 reporter plasmid and the pTK-Hyg plasmid (Clontech), which carries a hygromycin resistant gene, were co-transfected into the HEK293 cell line (the Korean Cell Line Bank, KCLB No. 21573), derived from the human kidney, with the aid of Effectene transfection reagent (Qiagen). Then, the cells were cultured for 3 weeks on a medium containing 200 μg/mL hygromycin to select transformants resistant to hygromycin. The cell colonies derived from single cells were transferred to 24-well plates to secure a reporter cell line. The cells were seeded at a density of 4×10^4 cells/well into 96-well plates containing DMEM and incubated for 24 hours before treatment with the compounds of the present invention at a concentration of 25 μM, 5 μM, 1 μM, 200 nM, 40 nM, 8 nM, 1.6 nM, 320 pM, 64 pM, 12.8 pM, 2.56 pM, 512 fM, 102 fM, 20.4 fM, or an amount between any two concentrations above as shown in FIGS. 1A to 1C. Under 1% oxygen condition, the cells were incubated for 6 hours and then, the medium was removed. The cells were lyzed by incubation for 5 min with 100 μL of the mixture of Bright-Glo™ luciferase assay buffer and Bright-Glo™ luciferase assay substrate (Promega). The whole cell lysate was transferred to 96-well, white plates (PerkinElmer) and measured for luminescence using Victor™ 3 (PerkinElmer). From the luminescence measurements, IC50 (a concentration of the compound at which luciferase activity was 50% inhibited) was calculated using the GraphPad Prism™ 4 program. The results are summarized in Table 2 and illustrated in FIGS. 1A to 1C.

Row | IC50 | SMILES
1 | 9 nM | CO/C=C(/C(=O)OC)c1ccccc1COc1cc(C)c(/C(COC)=N/OC)cc1C [Compound 80, (E)-methyl 3-methoxy-2-(2-((4-((Z)-2-methoxy-1-(methoxyimino)ethyl)-2,5-dimethylphenoxy)methyl)phenyl)acrylate]
2 | 960 nM | CCCO/N=C/c1ccc(OC)c(OCc2ccccc2/C(=C\OC)C(=O)OC)c1 [Compound 43, (E)-methyl 2-(2-((2-methoxy-5-((E)-(propoxyimino)methyl)phenoxy)-methyl)phenyl)-3-methoxyacrylate]
3 | 5070 nM | CCCO/N=C(\CC)c1cccc(OCc2ccccc2/C(=C\OC)C(=O)OC)c1 [Compound 7, (E)-methyl 2-(2-((3-((E)-1-(propoxyimino)propyl)phenoxy)methyl)-phenyl)-3-methoxyacrylate]
4 | 7220 nM | CO/C=C(/C(=O)OC)c1ccccc1COc1cc(/C(C)=N/O)ccc1OC [Compound 37, (E)-methyl 2-(2-((5-((E)-1-(hydroxyimino)ethyl)-2-methoxyphenoxy)-methyl)phenyl)-3-methoxyacrylate]
5 | 5990 nM | CO/C=C(/C(=O)OC)c1ccccc1COc1cccc(OCCO)c1 [Compound 12, (E)-methyl 2-(2-((3-(2-hydroxyethoxy)phenoxy)methyl)phenyl)-3-methoxyacrylate]
6 | 10000 nM | CO/C=C(/C(=O)OC)c1ccccc1COc1cccc(OCC[N+]2([O-])CCOCC2)c1 [Compound 13, (E)-4-(2-(3-(2-(1,3-dimethoxy-3-oxoprop-1-en-2-yl)benzyloxy)phenoxy)-ethyl)morpholine 4-oxide]
7 | 2 nM | CO/C=C(/C(=O)OC)c1ccccc1COc1cc(C)c(-c2ccn(C)n2)cc1C [Compound 82, (E)-methyl 3-methoxy-2-(2-((2,5-dimethyl-4-(1-methyl-1H-pyrazol-3-yl)phenoxy)methyl)phenyl)acrylate]
8 | 40 nM | CO/C=C(/C(=O)OC)c1ccccc1COc1cc(C)c(/C=N/Oc2ccccc2)cc1C [Compound 63, (E)-methyl 2-(2-((2,5-dimethyl-4-((E)-(phenoxyimino)methyl)phenoxy)-methyl)phenyl)-3-methoxyacrylate]
9 | 261 nM | CO/C=C(/C(=O)OC)c1ccccc1COc1ccc(/C=N/OCCc2ccccc2)cc1C [Compound 59, (E)-methyl 2-(2-((2-methyl-4-((E)-(phenylethoxyimino)methyl)phenoxy)-methyl)phenyl)-3-methoxyacrylate]
10 | 230 nM | CO/C=C(/C(=O)OC)c1ccccc1COc1cc(F)cc(OCc2ccccn2)c1 [Compound 23, (E)-methyl 2-(2-((3-fluoro-5-(pyridin-2-ylmethoxy)phenoxy)methyl)-phenyl)-3-methoxyacrylate]
11 | 1110 nM | CCCO/N=C(\C)c1ccc(OCc2ccccc2/C(=C\OC)C(=O)OC)cc1 [Compound 8, (E)-methyl 2-(2-((4-((E)-1-(propoxyimino)ethyl)phenoxy)methyl)phenyl)-3-methoxyacrylate]
12 | 880 nM | CO/C=C(/C(=O)OC)c1ccccc1COc1ccc(/C(C)=N/OCc2ccccc2)cc1OC [Compound 36, (E)-methyl 2-(2-((4-((E)-1-(benzyloxyimino)ethyl)-2-methoxyphenoxy)-methyl)phenyl)-3-methoxyacrylate]
13 | 440 nM | CO/C=C(/C(=O)OC)c1ccccc1COc1cccc(/C=N/N2CCOCC2)c1 [Compound 25, (E)-methyl 3-methoxy-2-(2-((3-((E)-(morpholinoimino)methyl)phenoxy)-methyl)phenyl)acrylate]
14 | 12600 nM | CCCOc1cc(C)cc(OCc2ccccc2/C(=C\OC)C(=O)OC)c1C [Compound 40, (E)-methyl 2-(2-((2,5-dimethyl-3-propoxyphenoxy)methyl)phenyl)-3-methoxyacrylate]
15 | 60 nM | CO/C=C(/C(=O)OC)c1ccccc1COc1ccc(/C=N/OCC2CC2)cc1C [Compound 67, (E)-methyl 2-(2-((4-((E)-(cyclopropylmethoxyimino)methyl)-2-methylphenoxy)methyl)phenyl)-3-methoxyacrylate]
16 | 1730 nM | CO/C=C(/C(=O)OC)c1ccccc1COc1ccc(/C=N/O)cc1C [Compound 31, (E)-methyl 2-(2-((4-((E)-(hydroxyimino)methyl)-2-methylphenoxy)-methyl)phenyl)-3-methoxyacrylate]
17 | 340 nM | CO/C=C(/C(=O)OC)c1ccccc1COc1cccc(OCCc2ccccc2)c1 [Compound 16, (E)-methyl 2-(2-((3-phenethoxyphenoxy)methyl)phenyl)-3-methoxyacrylate]

Row | IC50 | SMILES
18 | 1410 nM | CO/C=C(/C(=O)OC)c1ccccc1COc1cc(/C=N/OCc2ccccc2)ccc1OC [Compound 39, (E)-methyl 2-(2-((5-((E)-(benzyloxyimino)methyl)-2-methoxyphenoxy)-methyl)phenyl)-3-methoxyacrylate]
19 | 19900 nM | CCCO/N=C/c1cccc(OCc2ccccc2/C(=C\OC)C(=O)OC)c1 [Compound 14, (E)-methyl 3-methoxy-2-(2-((3-((E)-(propoxyimino)methyl)phenoxy)-methyl)phenyl)acrylate]
20 | 640 nM | CO/C=C(/C(=O)OC)c1ccccc1COc1cc(F)cc(OCc2ccc([N+](=O)[O-])cc2)c1 [Compound 24, (E)-methyl 2-(2-((3-fluoro-5-(4-nitrobenzyloxy)phenoxy)methyl)phenyl)-3-methoxyacrylate]
21 | 200 nM | CO/C=C(/C(=O)OC)c1ccccc1COc1ccc(F)c(OCc2ccccc2)c1F [Compound 62, (E)-methyl 2-(2-((3-(benzyloxy)-2,4-difluorophenoxy)methyl)phenyl)-3-methoxyacrylate]
22 | 180 nM | CO/C=C(/C(=O)OC)c1ccccc1COc1ccc(/C=N/OC2CCCC2)cc1C [Compound 70, (E)-methyl 2-(2-((4-((E)-(cyclopentyloxyimino)methyl)-2-methylphenoxy)methyl)phenyl)-3-methoxyacrylate]
23 | 37 nM | CO/C=C(/C(=O)OC)c1ccccc1COc1cc(C)c(-c2cnco2)cc1C [Compound 81, (E)-methyl 3-methoxy-2-(2-((2,5-dimethyl-4-(oxazol-5-yl)phenoxy)-methyl)phenyl)acrylate]
24 | 2140 nM | CO/C=C(/C(=O)OC)c1ccccc1COc1cc(C)cc(OCCOc2ccccc2)c1C [Compound 56, (E)-methyl 2-(2-((2,5-dimethyl-3-(2-phenoxyethoxy)phenoxy)methyl)-phenyl)-3-methoxyacrylate]
25 | 110 nM | CO/C=C(/C(=O)OC)c1ccccc1COc1ccc(/C=N/OCc2ccc(C)cc2)cc1C [Compound 60, (E)-methyl 2-(2-((2-methyl-4-((E)-(4-methylbenzyloxyimino)methyl)-phenoxy)methyl)phenyl)-3-methoxyacrylate]
26 | 210 nM | CO/C=C(/C(=O)OC)c1ccccc1COc1ccc(/C=N/OCc2ccccc2)cc1C [Compound 33, (E)-methyl 2-(2-((4-((E)-(benzyloxyimino)methyl)-2-methylphenoxy)-methyl)phenyl)-3-methoxyacrylate]
27 | 290 nM | CCO/N=C/c1cccc(OCc2ccccc2/C(=C\OC)C(=O)OC)c1 [Compound 4, (E)-methyl 2-(2-((3-((E)-(ethoxyimino)methyl)phenoxy)methyl)phenyl)-3-methoxyacrylate]
28 | 490 nM | CO/C=C(/C(=O)OC)c1ccccc1COc1cc(F)cc(OCc2ccccc2)c1 [Compound 21, (E)-methyl 2-(2-((3-(benzyloxy)-5-fluorophenoxy)methyl)phenyl)-3-methoxyacrylate]
29 | 61 nM | CO/C=C(/C(=O)OC)c1ccccc1COc1cc(C)c(/C(C)=N/OCc2ccccn2)cc1C [Compound 79, (E)-methyl 2-(2-((2,5-dimethyl-4-((E)-1-(pyridin-2-ylmethoxyimino)-ethyl)phenoxy)methyl)phenyl)-3-methoxyacrylate]
30 | 60 nM | CO/C=C(/C(=O)OC)c1ccccc1COc1cc(C)c(/C=N/OCc2ccncc2)cc1C [Compound 74, (E)-methyl 2-(2-((4-((E)-(pyridin-4-ylmethoxyimino)methyl)-2,5-dimethylphenoxy)methyl)phenyl)-3-methoxyacrylate]
31 | 920 nM | CO/C=C(/C(=O)OC)c1ccccc1COc1ccc(F)cc1 [Compound 19, (E)-methyl 2-(2-((4-fluorophenoxy)methyl)phenyl)-3-methoxyacrylate]
32 | 170 nM | CO/C=C(/C(=O)OC)c1ccccc1COc1cc(/C=N/Oc2ccccc2)ccc1OC [Compound 46, (E)-methyl 2-(2-((2-methoxy-5-((E)-1-(phenoxyimino)methyl)phenoxy)-methyl)phenyl)-3-methoxyacrylate]
33 | 110 nM | CO/C=C(/C(=O)OC)c1ccccc1COc1cc(/C=N/OCCc2ccccc2)ccc1OC [Compound 45, (E)-methyl 2-(2-((2-methoxy-5-((E)-1-(phenylethoxyimino)methyl)-phenoxy)methyl)phenyl)-3-methoxyacrylate]
34 | 3690 nM | CO/C=C(/C(=O)OC)c1ccccc1COc1cc(C)cc(O)c1C [Compound 55, (E)-methyl 2-(2-((3-hydroxy-2,5-dimethylphenoxy)methyl)phenyl)-3-methoxyacrylate]
